Experimental data reported in BindingDB's records for doi:10.1111/j.1476-5381.1993.tb13617.x (Glaxo Group Research, 1993).
“And” between values parts separate entries of the source, which are not always exact repeats. Equal values may be shown once. Where a name gives a salt, the structure may show the parent alone.

Target: 5-hydroxytryptamine receptor 4 (Cavia porcellus, UniProt O70528)
Sequence (O70528 whole entry): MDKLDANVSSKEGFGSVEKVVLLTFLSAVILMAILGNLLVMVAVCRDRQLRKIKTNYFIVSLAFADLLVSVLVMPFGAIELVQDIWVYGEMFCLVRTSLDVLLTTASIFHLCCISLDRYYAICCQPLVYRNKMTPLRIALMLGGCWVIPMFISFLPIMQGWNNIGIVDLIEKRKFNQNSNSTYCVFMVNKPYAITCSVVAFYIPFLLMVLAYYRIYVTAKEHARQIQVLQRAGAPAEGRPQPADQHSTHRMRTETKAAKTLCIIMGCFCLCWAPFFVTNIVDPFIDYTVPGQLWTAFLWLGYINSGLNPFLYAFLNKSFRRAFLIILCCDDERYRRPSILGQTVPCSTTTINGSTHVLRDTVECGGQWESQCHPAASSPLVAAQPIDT

Row | SMILES | Ki
1 | CCn1c(=O)n(C(=O)NC2CC3CCC(C2)N3C)c2ccccc21 (configuration not stated) [BIMU 1] | 15.8 nM
2 | Cn1cc(CCN)c2cc(O)ccc21 [5-HT,omega-N-Me] | 1580 nM
3 | CCN(CC)CCOC(=O)c1cc(Cl)c(N)cc1OC [SDZ-205557] | 7.94 nM and 6.3 nM
4 | Cn1cc(C(=O)OCC2CCN(CCNS(C)(=O)=O)CC2)c2ccccc21 [GR 113808] | 0.25 nM and 0.31 nM
5 | CCN(CC)CCNC(=O)c1cc(Cl)c(N)cc1OC [4-amino-5-chloro-N-[2-(diethylamino)ethyl]-2-methoxy-benzamide;hydrochloride] | 631 nM and 501 nM
6 | COc1cc(N)c(Cl)cc1C(=O)N[C@@H]1CN2CCC1CC2 [ZACOPRIDE,R] | 1000 nM and 501 nM
7 | CC(C)n1c(=O)n(C(=O)NC2C[C@H]3CC[C@@H](C2)N3C)c2ccccc21 (some centres not stated) [BIMU 8] | 25.1 nM and 12.6 nM
8 | CN1C2CCC1CC(OC(=O)c1c[nH]c3ccccc13)C2 (configuration not stated) | 63.1 nM
9 | COc1cc(N)c(Cl)cc1C(=O)NC1CCN2CCCC1C2 (configuration not stated) [NSC_3035240] | 126 nM and 100 nM
10 | NCCc1c[nH]c2ccc(C(N)=O)cc12 [[3H]-5-carboxamidotryptamine] | 6310 nM
11 | COc1ccc2[nH]cc(CCN)c2c1 [tryptamine, 5-Methoxy] | 631 nM and 316 nM
12 | COc1cc(N)c(Cl)cc1C(=O)NC1CN2CCC1CC2 (configuration not stated) [ZACOPRIDE,R] | 200 nM and 158 nM and 251 nM
